Assay results: ChEMBL document CHEMBL4196037, “Precise structures of fucosylated glycosaminoglycan and its oligosaccharides as novel intrinsic factor Xase inhibitors” (Eur J Med Chem, 2018)

Columns and labels:
[1] = molecular target: Coagulation factor X (Bos taurus) (UniProt P00743); assay: Inhibition of antithrombin-dependant bovine factor 10a activity at 2000 ng/ml preincubated for 1 mins followed by chromogenic substrate S10a-11 addition measured every 30 secs for 5 mins relative to control
Chain of Coagulation factor X (Bos taurus) (P00743 41-180 limits assumed): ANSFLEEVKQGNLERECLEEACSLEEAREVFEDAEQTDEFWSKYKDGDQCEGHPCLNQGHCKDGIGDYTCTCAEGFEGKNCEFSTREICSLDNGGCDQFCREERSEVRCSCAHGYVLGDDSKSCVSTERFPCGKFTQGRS
Chain of Coagulation factor X (Bos taurus) (P00743 234-492 limits assumed): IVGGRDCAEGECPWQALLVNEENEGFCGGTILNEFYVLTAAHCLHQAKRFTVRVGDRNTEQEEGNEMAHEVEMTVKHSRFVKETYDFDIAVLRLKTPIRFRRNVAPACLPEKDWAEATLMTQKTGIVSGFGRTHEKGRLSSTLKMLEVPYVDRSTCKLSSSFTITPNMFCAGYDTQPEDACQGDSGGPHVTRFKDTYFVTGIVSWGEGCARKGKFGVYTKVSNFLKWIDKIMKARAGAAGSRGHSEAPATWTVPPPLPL

[2] = test system: Plasma; assay: Anticoagulant activity in human plasma assessed as concentration required for increase in clotting time after 2 mins by aPTT assay; assay type: functional
[3] = test system: Plasma; assay: Anticoagulant activity in human plasma assessed as concentration required for increase in clotting time after 2 mins by TT assay; assay type: functional
[4] = molecular target: Coagulation factor IX/VIII (Homo sapiens, UniProt P00451+P00740); assay: Inhibition of human intrinsic factor tenase using factor-10 as substrate preincubated for 2 mins followed by substrate addition for 1 min measured every 30 secs for 5 mins by chromogenic substrate S10a-11 based assay; assay type: protein-complex assay
Chain of Coagulation factor IX/VIII (P00451 20-759 limits assumed): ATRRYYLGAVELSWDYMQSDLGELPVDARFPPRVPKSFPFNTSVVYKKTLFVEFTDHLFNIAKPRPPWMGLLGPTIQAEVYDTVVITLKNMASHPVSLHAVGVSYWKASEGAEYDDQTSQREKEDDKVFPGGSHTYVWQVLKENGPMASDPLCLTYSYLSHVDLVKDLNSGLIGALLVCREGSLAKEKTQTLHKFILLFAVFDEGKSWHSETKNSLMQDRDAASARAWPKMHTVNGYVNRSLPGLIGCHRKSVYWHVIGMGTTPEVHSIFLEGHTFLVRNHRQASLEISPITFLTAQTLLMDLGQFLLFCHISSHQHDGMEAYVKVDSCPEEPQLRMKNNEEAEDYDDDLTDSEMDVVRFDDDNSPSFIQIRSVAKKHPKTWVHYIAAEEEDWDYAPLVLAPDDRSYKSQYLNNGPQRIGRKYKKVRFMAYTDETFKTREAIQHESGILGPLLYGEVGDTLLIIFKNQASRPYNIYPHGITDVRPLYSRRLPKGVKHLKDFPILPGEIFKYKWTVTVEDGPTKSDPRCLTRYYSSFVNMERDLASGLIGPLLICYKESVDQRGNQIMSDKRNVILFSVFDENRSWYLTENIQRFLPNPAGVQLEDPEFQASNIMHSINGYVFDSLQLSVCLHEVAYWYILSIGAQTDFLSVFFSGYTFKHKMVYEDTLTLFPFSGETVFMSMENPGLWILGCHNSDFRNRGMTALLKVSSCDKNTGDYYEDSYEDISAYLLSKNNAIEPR
Chain of Coagulation factor IX/VIII (P00451 1668-2351 limits assumed): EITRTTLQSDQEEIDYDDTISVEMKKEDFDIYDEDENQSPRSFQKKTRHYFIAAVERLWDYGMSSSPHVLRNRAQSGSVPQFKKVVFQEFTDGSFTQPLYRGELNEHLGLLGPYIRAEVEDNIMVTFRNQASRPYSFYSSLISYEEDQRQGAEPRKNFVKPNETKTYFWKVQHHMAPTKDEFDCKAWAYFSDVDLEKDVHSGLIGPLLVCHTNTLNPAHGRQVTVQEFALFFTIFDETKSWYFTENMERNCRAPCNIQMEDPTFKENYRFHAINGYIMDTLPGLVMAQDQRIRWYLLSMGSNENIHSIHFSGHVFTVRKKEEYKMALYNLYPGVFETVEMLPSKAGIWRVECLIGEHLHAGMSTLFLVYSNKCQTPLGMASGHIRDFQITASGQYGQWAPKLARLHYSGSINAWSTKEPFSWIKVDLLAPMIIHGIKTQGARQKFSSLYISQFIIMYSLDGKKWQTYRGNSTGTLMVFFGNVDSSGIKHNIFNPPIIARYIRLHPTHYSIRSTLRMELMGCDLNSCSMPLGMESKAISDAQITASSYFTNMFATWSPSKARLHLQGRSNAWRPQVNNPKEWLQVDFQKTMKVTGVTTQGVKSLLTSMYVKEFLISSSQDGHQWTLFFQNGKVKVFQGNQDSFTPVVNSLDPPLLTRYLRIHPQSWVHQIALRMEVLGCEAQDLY
Chain of Coagulation factor IX/VIII (P00740 47-191 limits assumed): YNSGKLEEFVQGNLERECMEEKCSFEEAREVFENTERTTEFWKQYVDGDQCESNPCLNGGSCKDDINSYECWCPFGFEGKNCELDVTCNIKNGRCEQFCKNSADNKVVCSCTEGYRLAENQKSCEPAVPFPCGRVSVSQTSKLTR
Chain of Coagulation factor IX/VIII (P00740 227-461 limits assumed): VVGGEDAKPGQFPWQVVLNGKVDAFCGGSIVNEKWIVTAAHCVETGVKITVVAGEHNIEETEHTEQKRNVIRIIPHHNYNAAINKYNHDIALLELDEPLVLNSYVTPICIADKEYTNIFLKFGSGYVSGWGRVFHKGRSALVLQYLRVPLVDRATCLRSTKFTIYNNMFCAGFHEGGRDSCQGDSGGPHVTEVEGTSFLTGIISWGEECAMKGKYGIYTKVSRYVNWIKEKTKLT

[5] = test system: Plasma; assay: Anticoagulant activity in human plasma assessed as concentration required for increase in clotting time after 2 mins by PT assay; assay type: functional
[6] = molecular target: Prothrombin (Homo sapiens) (UniProt P00734); assay: Inhibition of antithrombin-dependant factor 2a (unknown origin) activity at 2000 ng/ml preincubated for 2 mins followed by chromogenic substrate CS-01 addition measured every 30 secs for 5 mins relative to control

| SMILES | inhibition [1] | 2aPTT [2] | 2TT [3] | IC50 [4] | 2PT [5] | inhibition [6] |
| --- | --- | --- | --- | --- | --- | --- |
| CC(=O)N[C@H]1[C@H](O[C@@H]([C@H](O[C@@H]2O[C@@H](C)[C@@H](OS(=O)(=O)[O-])[C@@H](O)[C@@H]2OS(=O)(=O)[O-])[C@@H](O)CO)[C@H](O)C(=O)[O-])O[C@H](COS(=O)(=O)[O-])[C@H](OS(=O)(=O)[O-])[C@@H]1O[C@@H]1O[C@H](C(=O)[O-])[C@@H](O[C@@H]2O[C@H](COS(=O)(=O)[O-])[C@H](OS(=O)(=O)[O-])[C@H](O[C@@H]3OC(C(=O)[O-])=C[C@H](O[C@@H]4O[C@@H](C)[C@@H](OS(=O)(=O)[O-])[C@@H](O)[C@@H]4OS(=O)(=O)[O-])[C@H]3O)[C@H]2NC(C)=O)[C@H](O[C@@H]2O[C@@H](C)[C@@H](OS(=O)(=O)[O-])[C@@H](O)[C@@H]2OS(=O)(=O)[O-])[C@H]1O.[Na+].[Na+].[Na+].[Na+].[Na+].[Na+].[Na+].[Na+].[Na+].[Na+].[Na+].[Na+].[Na+] | < 10% | 14.43 µg/mL | >128 µg/mL | 98.7 nM | >128 µg/mL | < 10% |
| CC(=O)N[C@H]1[C@H](O[C@@H]([C@H](O[C@@H]2O[C@@H](C)[C@@H](OS(=O)(=O)[O-])[C@@H](O)[C@@H]2OS(=O)(=O)[O-])[C@@H](O)CO)[C@H](O)C(=O)[O-])O[C@H](COS(=O)(=O)[O-])[C@H](OS(=O)(=O)[O-])[C@@H]1O[C@@H]1OC(C(=O)[O-])=C[C@H](O[C@@H]2O[C@@H](C)[C@@H](OS(=O)(=O)[O-])[C@@H](O)[C@@H]2OS(=O)(=O)[O-])[C@H]1O.[Na+].[Na+].[Na+].[Na+].[Na+].[Na+].[Na+].[Na+] | < 10% | 106.9 µg/mL | >128 µg/mL | 1150 nM | >128 µg/mL | < 10% |
| CC(=O)N[C@@H](CO)[C@@H](O[C@@H]1OC(C(=O)[O-])=C[C@H](O[C@@H]2O[C@@H](C)[C@@H](OS(=O)(=O)[O-])[C@@H](O)[C@@H]2OS(=O)(=O)[O-])[C@H]1O)[C@@H](OS(=O)(=O)[O-])[C@H](O)COS(=O)(=O)[O-].[Na+].[Na+].[Na+].[Na+].[Na+] | < 10% | >128 µg/mL | >128 µg/mL | 2420 nM | >128 µg/mL | < 10% |
